Reference: paper PMC7885111, “ApmA Is a Unique Aminoglycoside Antibiotic Acetyltransferase That Inactivates Apramycin” (mBio, 2021)

Legend:
ApmA [1] = target: T1, ApmA (Staphylococcus aureus, UniProt A0A1D0AST6); test: X-ray crystallography ([…] A); acetylation product shown by HR-ESI-MS and NMR; format: binding; conditions: crystals: 0.2 M CaCl (so in the source), 20% PEG 3350, 5 mM apramycin; turnover: 500 uM acetyl-CoA, pH 7.5, room temperature; acetylated at 2'-NH2; PDB id printed as 7J6M2 (typo for 7JM2)
T1 construct: full length, residues 1-274 described; synthetic gene in pET19b-TEV, E. coli BL21(DE3) host; N-terminal His10 tag cut by TEV for crystals; SeMet form also made; trimer
T1 sequence (A0A1D0AST6 entry or part of it): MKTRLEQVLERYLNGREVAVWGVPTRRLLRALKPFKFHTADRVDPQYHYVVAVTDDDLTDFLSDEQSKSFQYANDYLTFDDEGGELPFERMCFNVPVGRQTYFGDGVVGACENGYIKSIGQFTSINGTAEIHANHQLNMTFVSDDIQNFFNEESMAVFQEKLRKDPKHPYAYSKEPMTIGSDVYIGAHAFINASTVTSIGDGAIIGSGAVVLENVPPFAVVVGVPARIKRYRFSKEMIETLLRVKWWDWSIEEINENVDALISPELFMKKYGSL

ApmA [2] = target: T1, ApmA; test: X-ray crystallography ([…] A); format: binding; conditions: acetyl donor; crystals: 0.1 M citric acid pH 3.6, 30% PEG 200, 5 mM apramycin, 2 mM acetyl-CoA

SMILES	X-ray crystallography (1.85 A); acetylation product shown by HR-ESI-MS and NMR (ApmA [1])	X-ray crystallography (2.30 A) (ApmA [2])
CN[C@@H]1[C@@H](O[C@H]2O[C@H](CO)[C@@H](N)[C@H](O)[C@H]2O)O[C@H]2C[C@@H](N)[C@@H](O[C@H]3[C@H](O)[C@@H](O)[C@H](N)C[C@@H]3N)O[C@@H]2[C@@H]1O [apramycin]	Crystals of the apoenzyme and ApmA in complex with apramycin or acetyl-CoA were obtained	
CC(=O)SCCNC(=O)CCNC(=O)[C@H](O)C(C)(C)COP(=O)(O)OP(=O)(O)OC[C@H]1O[C@@H](n2cnc3c(N)ncnc32)[C@H](O)[C@@H]1OP(=O)(O)O [acetyl-CoA]		7JM1 (ApmA complex with acetyl-CoA)
